These are literature values, as cited in patent publication US20210298296A1, “METHOD OF PREVENTING MICROBES IN DISPOSABLE PRODUCTS” (priority 2020, published 2021).

Data set [1] relates to influenza virus subtype H1N1.
Data set [2] deals with cells activated by monocytes. Particulars: water-soluble components of Tea Tree Oil.
Data set [3] relates to S. aureus, Staphylococcus epidermidis, Propionibacterium acnes.
Another data set concerns Staphylococcus aureus. Particulars: in vitro.
Data set [4] concerns nail fungus (onychomycosis). Particulars: 117 patients; six months, twice-daily topical 1% clotrimazole or 100% Tea Tree Oil.
Where [5] appears, read: 104 patients, 10% w/w Tea Tree Oil cream vs 1% tolnaftate vs placebo.

Turning to Tea Tree Oil, in the data set on acne vulgaris (P. acnes) (human, in vivo), the “adverse side effects (skin scaling, dryness, irritation)” value is “fewer adverse side effects”.

Take `Cc1cccc(N(C)C(=S)Oc2ccc3ccccc3c2)c1` [tolnaftate]: in the data set on tinea pedis (setting [5]), the “conversion to negative culture at the end of therapy” value was “showed conversion to negative culture” and the “improvements in clinical symptoms” value is listed as “significant improvements in clinical symptoms”. For the same molecule, the “cure rate for tinea pedis” value in the data set on tinea pedis (human, in vivo) was 80%.

Regarding `CC1=CCC(O)(C(C)C)CC1` (stereo not shown) [Terpinen-4-ol, 4-methyl-1-(1-methylethyl)-3-cyclohexen-1-ol], the “antiviral activity against influenza virus subtype H1N1” value in data set [1] was “principally attributed to Terpinen-4-ol”. In addition, the inflammatory response entry in [2] was “suppress the inflammatory response”. For the same molecule, the “contribution to the antiprotozoal activity of Tea Tree Oil” value in the data set on Trypanosoma brucei and in the data set on Leishmania major was “contributed significantly to this activity” in each case. For the same molecule, the “inhibitory effect on all three organisms” value in data set [3] is “inhibitory”. Further, the “activity against Staphylococcus aureus, Terpinen-4-ol compared with whole Tea Tree Oil” value in the data set with Staphylococcus aureus is recorded as “equally effective”. The “growth of human melanoma cells” value with human melanoma cells is “impair the growth of human melanoma cells”.

As to `CC1=CCC(C(C)(C)O)CC1` (stereo not drawn) [alpha-terpineol], in data set [3], the “inhibitory effect on all three organisms” value is recorded as “inhibitory”.

As to `CC1=CCC2CC1C2(C)C` (stereo not drawn) [alpha-pinene], the “inhibitory effect on all three organisms” value in data set [3] was “inhibitory”.

For the molecule `O=C(OOC(=O)c1ccccc1)c1ccccc1` [benzoyl peroxide, reference compound], in the data set with acne vulgaris (P. acnes) (124 patients, 5% Tea Tree Oil gel vs 5% benzoyl peroxide lotion), the “number of inflamed and non-inflamed lesions” value is “significantly reduced the number of inflamed and non-inflamed lesions”.

In the case of `Clc1ccccc1C(c1ccccc1)(c1ccccc1)n1ccnc1` [clotrimazole], in [4], the “clinical resolution of the infection” value is “clinically documented resolution of the infection” and the fungus in cultures result is listed as “decrease in fungus in cultures”.
